According to publication PMC5459853, “Cathepsin S inhibition combines control of systemic and peripheral pathomechanisms of autoimmune tissue injury” (Scientific Reports, 2017):

Assays:
[1] = molecular target: T1, Cat-S (splenic p10 induction) (Mus musculus, UniProt O70370); experiment: Acute in vivo pharmacodynamics: splenic p10 induction after oral gavage; parameters: species or system BALB/c mice
T1 construct: from tissue; host or cells: mouse spleen / splenocytes after oral dosing
Experimental: (§1) For the determination of in-vivo enzyme inhibition activity of Cat-S by RO5459072 BALB/c mice were used. After oral dosing of 0.1 mg/kg to 100 mg/kg of RO5459072, mice were sacrificed after 7 hours and spleens harvested. Invariant chain was quantified by western blot from mouse splenocyte supernatants loaded onto 10% SDS-PAGE gel. Upon transfer onto a nitrocellulose membrane rabbit anti-CD74 (BD Biosciences) was used.
(§2) Supplementary figure 1. Biochemical and pharmacological profile of R05459072. (A) Upregulation of invariant chain p10 levels in human B-cells was estimated by p10 ELISA, upon treatment with increasing concentration of RO5459072. […]
(§3) upregulation in B-cells derived from 6 healthy volunteers. (B) Determination of KM for the fluorogenic substrate Z-Phe-Arg-AMC. (C) Progress curves of hydrolysis of 10 µM Z-Phe-Arg-AMC by 10 nM Cat-S in the presence of no (black dots) or increasing concentration of RO5459072. A linear equation was fitted to the data to determine the slope (solid lines). […]
(§4) the residuals of the fit to the data. (D) Secondary plot of the slopes from panel B as function of RO5459072 concentration (dots with color coding from panel B). The Morrison equation was […]
(§5) active Cat-S converged to [E]0 = 6.9 nM). The dashed red lines indicate the 95 % confidence intervals of the fit to the data. (E) Pharmacodynamics of R05459072 was determined in C57Bl6 mice with increasing amounts of compound as single dose. Plasma levels of compounds were correlated to the upregulation of p10 in spleenocytes.
(§6) Supplementary figure 2. FACS gating strategies used for the different splenic immune cell populations. (A-C) Activated dendritic cells CD11c+CD11b+MHC-II, (D-F) activated macrophages CD11c+F480+MHC-II and (G-H) plasma cells CD138+κ-light chain+
(§7) Supplementary figure 3. Plasma IgG isotypes in MRL-(Fas)lpr mice. Plasma levels of IgG1 (A), IgG2a (B), and IgG2b (C) were determined by ELISA at different time points from the initiation (week 11) to the end of treatment (week 19). Data are expressed as means ± SEM (n=8 to 10 in […]

[2] = as above; parameters: species or system BALB/c mice; details: BALB/c, mouse, plasma; oral gavage 1 mg/kg; read-out: plasma concentration of the inhibitor at maximal p10 induction
Experimental: as §1, §2, §3, §4, §5, §6, §7

[3] = molecular target: Human Cat-S (Homo sapiens, UniProt P25774); experiment: Enzymatic isoform-selectivity assay, human Cat-S; format: biochemical; details: read-out: apparent IC50, human Cat-S
Human Cat-S, sequence (P25774 115-331): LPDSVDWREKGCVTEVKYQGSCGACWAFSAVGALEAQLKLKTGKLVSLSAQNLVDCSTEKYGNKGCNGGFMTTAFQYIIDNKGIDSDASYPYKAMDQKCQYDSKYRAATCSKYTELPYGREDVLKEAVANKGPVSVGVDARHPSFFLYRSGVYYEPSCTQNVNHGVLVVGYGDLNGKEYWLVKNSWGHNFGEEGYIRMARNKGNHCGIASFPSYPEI
Experimental: RO5459072 was provided by F. Hoffmann-La Roche, Ltd., Basel, Switzerland. It is a competitive inhibitor of the active site of Cat-S and its nitrile function allows covalent reversible inhibition of Cat-S. The synthesis of RO5459072 has been described in WO 2010121918 and WO 2013068434. Recombinant cathepsins were produced in-house or were purchased from commercial vendors. Initial enzymatic assays to determine isoform-selectivity in vitro were performed as previously described, [23]. […] For this the Cat-S-dependent hydrolysis of the fluorogenic substrate Z-Phe-Arg-AMC (Sigma Aldrich) was followed at various inhibitor concentrations. The active fraction of Cat-S was detemined as 70% with a HPLC assay measuring modification of Cat-S with the covalent inhibitor LHVS. The buffer (100 mM potassium phosphate, 50 mM NaCl, 5 mM EDTA, 5 mM TCEP, pH 6) was thoroughly degassed prior to perfoming measurements to prevent oxidation of the catalytic cystein residue by dissolved oxygen. For the Ki-determination the substrate was employed at 10 µM = KM. All kinetic measurements were performad on a SFM-3000 stopped-flow instrument (Bio-Logic Science Instruments) and data were analyzed with GraphPad Prism v5.

For Cn1cc(-c2ccc(S(=O)(=O)[C@@H]3C[C@@H](C(=O)NC4(C#N)CC4)N(C(=O)C4(C(F)(F)F)CC4)C3)c(C(F)(F)F)c2)cn1 [RO5459072], the “dose of maximal splenic p10 induction” value ([1]; oral gavage, single doses 0.1–100 mg/kg, spleens after 7 hours) was 1 mg/kg, the EC50 ([1]; single oral dose, mice, read-out: p10/li in vivo EC50 (plasma level vs p10 upregulation in splenocytes)) was 17 nM and the concentration at 7 h [2] was 17 nM. The IC50 [3] was 0.1 nM.
